Series [1] is described as follows: Plasma concentrations of tertiary amines and their N-oxides in mice (LC-MS). To be noted: mouse, in vivo. As to the method:
The LC-MS system consists of 2 Perkin elmer series 200 micro pumps. The pumps are connected to each other by a 50 μl tee mixer, connected to a Gilson 215 auto sampler. The method is as follows:
The auto sampler has a 2 μl injection loop. The auto sampler is connected to a Waters Atlantis C18 30*4.6 mm column with 3 μm particles. The column is thermo stated in a Perkin Elmer series 200 column oven at 40° C. The column is connected to a Perkin Elmer series 200 UV meter with a 2.7 μl flowcel. The wavelength is set to 254 nm. The UV meter is connected to a Sciex API 150EX mass spectrometer. The mass spectrometer has the following parameters: Scanrange: 150-900 a.m.u.; polarity: positive; scan mode: profile; resolution Q1: UNIT; step size: 0.10 a.m.u.; time per scan: 0.500 sec; NEB: 10; CUR: 10; IS: 5200; TEM: 325; DF: 30; FP: 225 and EP: 10. The light scattering detector is connected to the Sciex API 150. The light scattering detector is a Sedere Sedex 55 operating at 50° C. and 3 bar N2. The complete system is controlled by a G3 powermac.
For oral (p.o.) administration: to the desired quantity (0.5-5 mg) of the solid test compound in a glass tube, some glass beads were added and the solid was milled by vortexing for 2 minutes. After addition of 1 ml of a solution of 1% methylcellulose in water and 2% (v/v) of Poloxamer 188 (Lutrol F68), the compound was suspended by vortexing for 10 minutes. The pH was adjusted to 7. Remaining particles in the suspension were further suspended by using an ultrasonic bath.
For intravenous (i.v.) administration: compounds were dissolved in physiological saline (0.9% NaCl) and the pH was adjusted to 7.
Bifeprunox, SLV308 and SLV318 as well as their respective N-oxides were individually administered (either intravenously (i.v.) or orally (p.o.)) to mice (3 animals per time point), after which their blood was analyzed by LC-MS (method see above) for both the parent amine and its N-oxide. Data were averaged (n=3), and collected in the tables below.

Series [2] is described as follows: Metabolism to the N-oxide in man. It is filed as in vivo. To be noted: after administration of the tertiary amine. The text has this:
But also its N-desmethyl analog and its N-oxide were detected in the plasma of all three species, after oral administration of SLV308. In man, the N-oxide accounts for approximately 30% of the administered dose.
In man, neither bifeprunox nor SLV318 are metabolized to their respective N-oxides. […] For this reason there never has been an incentive to synthesize and study these compounds until the unexpected findings with the N-oxide of SLV308.

As for `O=c1[nH]c2cccc(N3CC[N+]([O-])(Cc4cccc(-c5ccccc5)c4)CC3)c2o1` [N-oxide of bifeprunox, N-Oxide of Bifeprunox], the “Analyzed in blood: Bifeprunox” value was 0 ng/mL in series [1] (iv, 0.5 mg/kg, 0 hr); 176 ng/mL in series [1] (iv, 0.5 mg/kg, 0.5 hr); 80 ng/mL in series [1] (iv, 0.5 mg/kg, 3 hr); 520 ng/mL in series [1] (po, 5 mg/kg, 1 hr); 38 ng/mL in series [1] (po, 5 mg/kg, 24 hr). Also, the “Analyzed in blood: N-oxide (of bifeprunox)” value in series [1] (iv, 0.5 mg/kg, 0.5 hr) is 85 ng/mL; in series [1] (iv, 0.5 mg/kg, 7 hr) it was 5 ng/mL; in series [1] (iv, 0.5 mg/kg, 24 hr), 0 ng/mL; in series [1] (po, 5 mg/kg, 1 hr), 70 ng/mL; in series [1] (po, 5 mg/kg, 7 hr) it was 48 ng/mL; in series [1] (po, 5 mg/kg, 24 hr), 6 ng/mL.
`O=c1[nH]c2cccc(N3CCN(Cc4ccccc4)CC3)c2o1` [SLV318]: the “N-oxide as metabolite in blood plasma (in words)” value in series [2] is “never detected in significant concentrations”. For the same compound, in series [1], the “Formation of N-oxide as metabolite (in words)” value is “does not give rise to a significant amount of N-oxide as metabolite”. Further, the “Analyzed in blood: N-oxide (of SLV318)” value in series [1] (iv, 0.5 mg/kg, 0.17 hr) worked out at 1 ng/mL; in series [1] (iv, 0.5 mg/kg, 0.5 hr), 0 ng/mL; in series [1] (iv, 0.5 mg/kg, 1 hr), 0 ng/mL; in series [1] (iv, 0.5 mg/kg, 3 hr), 0 ng/mL; in series [1] (iv, 0.5 mg/kg, 7 hr) it was 0 ng/mL; in series [1] (iv, 0.5 mg/kg, 24 hr) it was 0 ng/mL. The “Analyzed in blood: N-oxide (of SLV318)” value was 0 ng/mL in series [1] (po, 5 mg/kg, 0.17 hr); 0 ng/mL in series [1] (po, 5 mg/kg, 0.5 hr); 0 ng/mL in series [1] (po, 5 mg/kg, 1 hr); 0 ng/mL in series [1] (po, 5 mg/kg, 3 hr); 0 ng/mL in series [1] (po, 5 mg/kg, 7 hr); 0 ng/mL in series [1] (po, 5 mg/kg, 24 hr). In addition, the “Analyzed in blood: SLV318” value is 164 ng/mL in series [1] (iv, 0.5 mg/kg, 0.17 hr); 51 ng/mL in series [1] (iv, 0.5 mg/kg, 0.5 hr); 18 ng/mL in series [1] (iv, 0.5 mg/kg, 1 hr); 2 ng/mL in series [1] (iv, 0.5 mg/kg, 3 hr); 0.2 ng/mL in series [1] (iv, 0.5 mg/kg, 7 hr); 0 ng/mL in series [1] (iv, 0.5 mg/kg, 24 hr). Besides, the “Analyzed in blood: SLV318” value was 71 ng/mL in series [1] (po, 5 mg/kg, 0.17 hr); 33 ng/mL in series [1] (po, 5 mg/kg, 0.5 hr); 19 ng/mL in series [1] (po, 5 mg/kg, 1 hr); 9 ng/mL in series [1] (po, 5 mg/kg, 3 hr); 2 ng/mL in series [1] (po, 5 mg/kg, 7 hr); 0 ng/mL in series [1] (po, 5 mg/kg, 24 hr).
Take `O=c1[nH]c2cccc(N3CC[N+]([O-])(Cc4ccccc4)CC3)c2o1` [N-oxide of SLV318, N-Oxide of SLV318]: the “Analyzed in blood: N-oxide (of SLV318)” value in series [1] (iv, 0.5 mg/kg, 24 hr) amounted to 0 ng/mL; in series [1] (po, 5 mg/kg, 3 hr), 0 ng/mL. Also, the “Analyzed in blood: SLV318” value turned out to be 1 ng/mL in series [1] (po, 5 mg/kg, 0.17 hr); 7 ng/mL in series [1] (po, 5 mg/kg, 0.5 hr); 0 ng/mL in series [1] (po, 5 mg/kg, 24 hr).

For the origin of these results see patent publication US7750013B2, “N-oxides as prodrugs of piperazine and piperidine derivatives” (Solvay Pharmaceuticals, B.V., priority 2005, dated 2010).
